Test results: patent US20230009608A1, “GRK2 INHIBITORS AND USES THEREOF” (Cygnal Therapeutics, Inc., priority 2020, published 2023)

Key:
GRK2 [1] = target: T1, GRK2 (Homo sapiens, UniProt P25098); test: GRK2 Inhibition Assay (TR-FRET, Example 7); assay type: biochemical
T1 construct: purchased SignalChem A14-10G
T1 sequence (P25098 1-689): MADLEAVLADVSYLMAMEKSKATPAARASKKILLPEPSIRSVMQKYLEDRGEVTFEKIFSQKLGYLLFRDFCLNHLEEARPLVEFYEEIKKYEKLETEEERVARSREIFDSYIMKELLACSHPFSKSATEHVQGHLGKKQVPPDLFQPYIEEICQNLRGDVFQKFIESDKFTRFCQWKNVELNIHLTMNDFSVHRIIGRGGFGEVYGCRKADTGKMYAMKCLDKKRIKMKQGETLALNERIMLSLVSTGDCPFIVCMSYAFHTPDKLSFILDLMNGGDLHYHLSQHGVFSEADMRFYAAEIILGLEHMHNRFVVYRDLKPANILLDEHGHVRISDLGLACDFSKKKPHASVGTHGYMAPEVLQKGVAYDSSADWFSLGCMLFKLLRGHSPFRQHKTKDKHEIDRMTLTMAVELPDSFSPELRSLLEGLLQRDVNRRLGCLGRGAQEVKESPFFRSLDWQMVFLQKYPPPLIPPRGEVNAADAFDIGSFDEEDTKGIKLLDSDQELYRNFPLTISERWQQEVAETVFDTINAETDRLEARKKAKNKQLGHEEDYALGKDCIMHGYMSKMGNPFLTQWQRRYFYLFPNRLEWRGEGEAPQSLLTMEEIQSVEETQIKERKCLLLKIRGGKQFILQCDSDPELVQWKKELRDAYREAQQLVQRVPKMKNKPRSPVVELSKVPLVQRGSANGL
Method: Enzyme GRK2 (1 nM final concentration) was diluted in 25 mMv HEPES, 10 mM MgCl2, 2 mM DTT, 0.01% Tween-20, and 1 mM EGTA. Then the GRK2 mixture was added into ProxiPlate-384 white plate and pre-incubated for 30 min with test compounds at room temperature. ATP (7 μM final concentration) and Ulight TopoIIα (50 nM final concentration) were added into the assay plate to initiate the reaction and the mixture was incubated at room temperature for 90 min. Then, Eu anti-TopoIIα (0.12 nM final concentration), BSA (0.01% final concentration), and EDTA (11 mMv final concentration) in LANCE assay buffer were added into each well. After 60 min incubation time at room temperature, TR-FRET signal was measured by EnVision plate reader.

GRK2 [2] = target: T1, GRK2; test: ADPGlo GRK2 Inhibition Assay (Example 8); assay type: biochemical
How it was run: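 GRK2 (15 nM 2× enzyme solution) was preincubated 15 min with compound, then reacted 180 min at room temperature with 2× mix of 20 μM ATP plus GRKtide in HEPES pH 7.5, MgCl2, Tween-20, DTT. ADP was detected by ADP-Glo luminescence. Percent inhibition was normalised to enzyme and no-enzyme controls, with dose-response curves from threefold dilutions starting at 100 μM.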

[3] = test system: PAXF1657 control empty vector cell line; test: 7-day proliferation assay, PAXF1657 control empty vector cell line (Example 9); assay type: cell-based; conditions: 168 h; Cell Line: PAXF1657 empty vector (EV) cell line; 7-day; read-out: C: 7-day proliferation assay: IC50 GeoMean
How it was run: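 500 cells/well, RPMI1640 + 10% H.I. FBS, adhered overnight at 37° C. Compound 10-pt dilution, 30 μM-0.0002 μM final, 0.3% DMSO. 3 d, media + compound replaced, further 4 d. Viability by CellTiter-Glo; untreated plates read at time of dosing.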

[4] = Enzyme Assay B, TR-FRET (Example 7), read-out: B: Enzymatic GRK2: IC50 (nM) (Example 7)
[5] = Enzyme Assay A, ADPGlo (Example 8), read-out: A: Enzymatic GRK2: IC50 (nM) (Example 8)
[6] = TR-FRET GRK2 enzyme assay, read-out: B: Enzymatic GRK2: IC50 (nM) (Example 7)

Cn1c(CNc2cccc(C(=O)NCc3ccc4nccn4c3)c2)nnc1-c1ccncn1 [drawing 611]
IC50 (GRK2 [1]; [4]): 26 nM | IC50 (GRK2 [2]; [5]): 1.7 nM | IC50 [3]: 2930 nM

CCc1cnccc1CNC(=O)c1cccc(NCc2nnc(-c3ccncn3)n2[C@H]2CCC[C@H](NC)C2)c1
IC50 (GRK2 [1]; [6]): 810 nM | IC50 (GRK2 [2]; ADPGlo GRK2 enzyme assay, read-out: A: Enzymatic GRK2: IC50 (nM) (Example 8)): 529 nM

COc1ncccc1CNC(=O)c1cccc(NCc2nnc(-c3ccncc3)[nH]2)c1 [compound 9]
IC50 (GRK2 [1]; 1 nM GRK2, 7 μM ATP, TR-FRET, read-out: GRK2 IC50 (nM) (Example 7)): 5.8 nM | IC50 (GRK2 [2]; 7.5 nM GRK2, 10 μM ATP, ADP-Glo, read-out: GRK2 IC50 (nM) (Example 8)): 12 nM

C#Cc1cccc(OS(=O)(=O)F)c1CNC(=O)c1cccc(NCc2nnc(-c3ccncc3)[nH]2)c1
IC50 (GRK2 [1]): 4.2 nM | IC50 (GRK2 [2]): 8.94 nM | IC50 [3]: 1550 nM

C[C@H](NC(=O)c1cccc(NCc2nnc(-c3ccncn3)n2CCO)c1)c1ncccc1Cl
IC50 (GRK2 [1]; [4]): 0.88 nM | IC50 (GRK2 [2]; [5]): 4.89 nM | IC50 [3]: > 220 nM

COc1cccc(C(CO)NC(=O)c2cccc(NCc3nnc(-c4ccncn4)n3C)c2)c1 (centres unmarked) [drawing 569]
IC50 (GRK2 [1]; [4]): 13 nM | IC50 (GRK2 [2]; [5]): 5.4 nM | IC50 [3]: > 30000 nM

Cn1c(CNc2cc(C(=O)NCc3cccnc3C(F)(F)F)ccn2)nnc1-c1ccncn1
IC50 (GRK2 [1]; [4]): 11 nM | IC50 [3]: > 30000 nM

CCCn1c(CNc2cccc(C(=O)NCc3ccc(OC)cc3F)c2)nnc1-c1ccncn1
IC50 (GRK2 [1]; [4]): 2.1 nM | IC50 [3]: > 30000 nM

O=C(NCc1cccc2c1OCC2)c1cccc(NCc2nnc(-c3ccncn3)n2CCO)c1
IC50 (GRK2 [1]; [4]): 1.7 nM | IC50 [3]: > 30000 nM

O=C(NCc1cccnc1C(F)(F)F)c1cccc(NCc2nnc(-c3ccncc3)[nH]2)c1
IC50 (GRK2 [1]; [4]): 13 nM | IC50 [3]: > 30000 nM

Cn1c(CNc2cccc(C(=O)N[C@@H]3CCOc4cc(F)ccc43)c2)nnc1-c1ccncn1
IC50 (GRK2 [1]; [4]): 1900 nM | IC50 [3]: 168 nM

Cn1c(CNc2cccc(C(=O)N[C@H](C#N)c3ccc(F)cc3F)c2)nnc1-c1ccncn1
IC50 (GRK2 [1]; [6]): 4.9 nM | IC50 [3]: 122 nM

Cn1c(CNc2cc(C(=O)N[C@@H]3COc4ccccc43)ccn2)nnc1-c1ccncn1
IC50 (GRK2 [1]; [4]): 26 nM | IC50 [3]: 1800 nM

Cn1c(CNc2cccc(C(=O)N[C@@H]3CCOc4ccc(Br)cc43)c2)nnc1-c1ccncn1
IC50 (GRK2 [1]; [4]): 510 nM | IC50 [3]: > 30000 nM

Cn1c(CNc2cccc(C(=O)N[C@@H]3CCOc4c(Br)cccc43)c2)nnc1-c1ccncn1
IC50 (GRK2 [1]; [4]): 13 nM | IC50 [3]: 1630 nM

Cc1cccc([C@@H](CO)NC(=O)c2ccnc(NCc3nnc(-c4ccncn4)n3C)c2)c1
IC50 (GRK2 [1]; [4]): 96 nM | IC50 [3]: > 30000 nM

COCCCn1c(CNc2cccc(C(=O)NCc3cccnc3C(F)(F)F)c2)nnc1-c1ccncn1
IC50 (GRK2 [1]; [4]): 15 nM | IC50 [3]: 1200 nM

Cn1c(CNc2cccc(C(=O)N[C@H]3CCOc4c3cccc4C(F)(F)F)c2)nnc1-c1ccncn1
IC50 (GRK2 [1]; [4]): 9.7 nM | IC50 [3]: > 30000 nM

Cn1c(CNc2cccc(C(=O)N[C@@H]3CCOc4cc(C(F)(F)F)ccc43)c2)nnc1-c1ccncn1
IC50 (GRK2 [1]; [4]): 56 nM | IC50 [3]: 93.2 nM

COc1cccc(OC)c1CNC(=O)c1cccc(NCc2nnc3n2CCOc2cnccc2-3)c1
IC50 (GRK2 [1]; [4]): 6.7 nM | IC50 [3]: > 30000 nM

C[C@@H](NC(=O)c1cccc(NCc2nnc(-c3ccncn3)n2CCO)c1)c1ncccc1Cl
IC50 (GRK2 [1]; [4]): < 0.51 nM | IC50 [3]: 803 nM

O=C(NC1(c2ccccc2)CCOCC1)c1cccc(NCc2nnc3n2CCOc2cnccc2-3)c1
IC50 (GRK2 [1]; [4]): 39 nM | IC50 [3]: 20300 nM

Cn1c(CNc2cccc(C(=O)N[C@@H]3CC(C)(C)Oc4ccccc43)c2)nnc1-c1ccncn1
IC50 (GRK2 [1]; [4]): 45 nM | IC50 [3]: 9090 nM

Cc1ccc2c(c1)[C@H](NC(=O)c1cccc(NCc3nnc(-c4ccncn4)n3C)c1)CCO2
IC50 (GRK2 [1]; [4]): 4.6 nM | IC50 [3]: 196 nM

Cn1c(CNc2cccc(C(=O)N[C@H]3CCOc4ccc(Cl)cc43)c2)nnc1-c1ccncn1
IC50 (GRK2 [1]; [4]): 120 nM | IC50 [3]: > 30000 nM

Cn1c(CNc2cccc(C(=O)N[C@@H]3CCOc4cc(Cl)ccc43)c2)nnc1-c1ccncn1
IC50 (GRK2 [1]; [4]): 8.4 nM | IC50 [3]: 240 nM

O=C(NCc1cccc2c1OCC2)c1cccc(NCc2nnc(-c3ccncc3)[nH]2)c1
IC50 (GRK2 [1]; [4]): 2.9 nM | IC50 [3]: > 30000 nM

Cn1c(CNc2cccc(C(=O)N[C@@H](C#N)c3ccccc3F)c2)nnc1-c1ccncn1
IC50 (GRK2 [1]; [6]): 5.5 nM | IC50 [3]: 59.3 nM

Cc1cccnc1CNC(=O)c1cccc(NCc2nnc(-c3ccncn3)n2CCO)c1
IC50 (GRK2 [1]; [4]): 2.5 nM | IC50 [3]: 1160 nM

O=C(NCc1ccccc1OS(=O)(=O)F)c1cccc(NCc2nnc(-c3ccncc3)[nH]2)c1
IC50 (GRK2 [1]): 12 nM | IC50 [3]: 7640 nM

Cc1ccc2c(c1)[C@@H](NC(=O)c1cccc(NCc3nnc(-c4ccncn4)n3C)c1)CC(C)(C)O2
IC50 (GRK2 [1]; [4]): 240 nM | IC50 [3]: > 30000 nM

Cn1c(CNc2cccc(C(=O)NCc3cc[nH]n3)c2)nnc1-c1ccncn1
IC50 (GRK2 [1]; [4]): 39 nM | IC50 [3]: > 10000 nM

COCCOc1cccc(CNC(=O)c2cccc(NCc3nnc(-c4ccncn4)n3C)c2)c1
IC50 (GRK2 [1]; [4]): 39 nM | IC50 [3]: 779 nM

O=C(NCc1cccc2c1OCC2)c1cccc(NCc2nnc3n2CCOc2cnccc2-3)c1
IC50 (GRK2 [1]; [4]): 2.4 nM | IC50 [3]: 3010 nM

O=C(NCc1cccnc1C(F)(F)F)c1cccc(NCc2nnc(-c3ccncn3)n2CCCN2CCC[C@H]2CO)c1
IC50 (GRK2 [1]; [4]): 1000 nM | IC50 [3]: > 30000 nM

O=C(N[C@H]1COc2ccccc21)c1cccc(NCc2nnc(-c3ccncn3)n2CCO)c1
IC50 (GRK2 [1]; [4]): < 0.51 nM | IC50 [3]: 107 nM

Cn1c(CNc2cccc(C(=O)N[C@H]3CCOc4c3ccc(F)c4F)c2)nnc1-c1ccncn1
IC50 (GRK2 [1]; [4]): 1500 nM | IC50 [3]: > 30000 nM

O=C(NCc1ccncc1Cl)c1cccc(NCc2nnc(-c3ccncn3)n2CCO)c1
IC50 (GRK2 [1]; [4]): < 2.9 nM | IC50 [3]: > 2970 nM

Cn1c(CNc2cccc(C(=O)N[C@H]3CCOc4cc(F)ccc43)c2)nnc1-c1ccncn1
IC50 (GRK2 [1]; [4]): 6.4 nM | IC50 [3]: > 30000 nM

Cn1c(CNc2cccc(C(=O)N[C@H]3CC(C)(C)Oc4ccccc43)c2)nnc1-c1ccncn1
IC50 (GRK2 [1]; [4]): 30 nM | IC50 [3]: > 30000 nM

CCOc1ccccc1CNC(=O)c1cccc(NCc2nnc(-c3ccncc3)n2CCO)c1
IC50 (GRK2 [1]; [4]): 19 nM | IC50 [3]: 6310 nM

O=C(NCc1cccnc1C(F)(F)F)c1cccc(NCc2nnc3n2CCOc2cnccc2-3)c1
IC50 (GRK2 [1]; [4]): 3.5 nM | IC50 [3]: 6570 nM

COc1ccc(CNC(=O)c2cccc(NCc3nnc(-c4ccncc4)n3CCO)c2)c(F)c1
IC50 (GRK2 [1]; [4]): 4.9 nM | IC50 [3]: > 30000 nM

Cn1c(CNc2cccc(C(=O)N[C@H]3CCOc4cc(Cl)ccc43)c2)nnc1-c1ccncn1
IC50 (GRK2 [1]; [4]): 18 nM | IC50 [3]: > 29400 nM

CCCn1c(CNc2cccc(C(=O)NC3(c4ccccc4)CCOCC3)c2)nnc1-c1ccncn1
IC50 (GRK2 [1]; [4]): 22 nM | IC50 [3]: 9260 nM

Cc1cccc2ncc(CNC(=O)c3ccnc(NCc4nnc(-c5ccncn5)n4C)c3)n12
IC50 (GRK2 [1]; [4]): 24 nM | IC50 [3]: > 30000 nM

Cn1c(CNc2cccc(C(=O)N[C@H]3CCOc4c(Br)cccc43)c2)nnc1-c1ccncn1
IC50 (GRK2 [1]; [4]): 3.6 nM | IC50 [3]: > 30000 nM

C#Cc1ccc(OS(=O)(=O)F)c(CNC(=O)c2cccc(NCc3nnc(-c4ccncc4)[nH]3)c2)c1
IC50 (GRK2 [1]; [4]): 13 nM | IC50 [3]: > 7500 nM

CCc1cnccc1CNC(=O)c1cccc(NCc2nnc(-c3ccncn3)n2CCCOC)c1
IC50 (GRK2 [1]; [4]): 23 nM | IC50 [3]: > 30000 nM

O=C(N[C@H]1CCOc2c(Cl)cccc21)c1cccc(NCc2nnc(-c3ccncn3)n2CCO)c1
IC50 (GRK2 [1]; [4]): 1.5 nM | IC50 [3]: 163 nM

O=C(NCc1cccc(F)c1)c1cccc(NCc2nnc3n2CCOc2cnccc2-3)c1
IC50 (GRK2 [1]; [4]): 3.7 nM | IC50 [3]: 7020 nM

O=C(NCc1cccnc1C(F)(F)F)c1cccc(NCc2nnc(-c3ccncc3)n2CCO)c1
IC50 (GRK2 [1]; [4]): 5.2 nM | IC50 [3]: > 30000 nM

CCc1cnccc1CNC(=O)c1cccc(NCc2nnc(-c3ccncc3F)n2C)c1
IC50 (GRK2 [1]; [4]): 41 nM | IC50 [3]: 1480 nM
